Source: US6558900B2, “Regulation of apoptosis and in vitro model for studies thereof” (Emory University, priority 1996, dated 2003)
“Also recorded” adds a separate entry of the source.

What was measured:
[1] = test system: CPP32; assay: Activation of endogenous CPP32 in HeLa cell S-100 (Western blot; cleavage of 35S-labeled PARP and SREBP-2); type: biochemical, human; settings: 1 mM nucleotide, 30° C., 1 hr, Western blot
Description: (§1) FIGS. 1A-1D illustrate dATP-dependent activation of CPP32 and DNA fragmentation in vitro. Aliquots (10 μl) of HeLa cell S-100 (50 μg) were incubated alone (lane 1), in the presence of 1 mM ATP (lane 2), or in the presence of 1 mM dATP (lane 3) at 30° C. for 1 hr in a final volume of 20 μl of buffer A. FIG. 1A, samples were subjected to SDS-PAGE and transferred to a nitrocellulose filter, probed with a monoclonal anti-CPP32 antibody, and the antigen/antibody complex was visualized by the ECL method. The filter was exposed to Kodak X-OMAT AR X-ray film for 1 min. In FIG. 1B, an aliquot of 10 μl of in vitro translated, ^35S-labeled PARP was added to each reaction. After 5 min, the samples were subjected to SDS-PAGE and transferred to a nitrocellulose filter. The filter was exposed to film for 2 hr at room temperature. In FIG. 1C, a 5 μl aliquot of in vitro translated, ^35S-labeled SREBP-2 was added to each reaction. After incubation at 30° C. for 30 min, the samples were subjected to SDS-PAGE, the gel was dried and exposed to film for 2 hr at room temperature. In FIG. 1D, a 50 μlaliquot of HeLa cell S-100 (250 μg) was incubated with 6 μl Hamster Liver nuclei in the absence (lane 1), or presence of 1 mM ATP (lane 2) or dATP (lane 3) for 2 hr at 37° C. in a final volume of 60 μl of buffer A. DNA was isolated as described in the Examples and size-separated by agarose gel electrophoresis (2% agarose), and the DNA was visualized by ethidium bromide staining.
Activation of CPP32 and DNA fragmentation are two well characterized biochemical markers of apoptosis and its initiation. With the goal of producing an in vitro system that duplicates apoptosis, we prepared 100,000×g cytosolic supernatant (S-100) from suspension cultures of HeLa cells. The activation of CPP32 is the result of cleavage of its 32 kDa precursor into the 20 kDa NH2-terminal fragment and 11 kDa COOH-terminal fragment [Nicholson et al. (1995) supra], thus the activation of CPP32 in the HeLa cell S-100 was monitored by Western blot analysis using a monoclonal antibody against the 20 kDa fragment of CPP32 (FIG. 1A). The enzymatic activity of CPP32 was assayed by measuring the cleavage of two ^35S-labeled substrates, PARP (FIG. 1B) and SREBP-2 (FIG. 1C). DNA fragmentation was assayed by incubating the HeLa cell S-100 with nuclei isolated from hamster liver followed by genomic DNA extraction and analysis by agarose gel electrophoresis. […] The sizes of the cleaved products of PARP and SREBP-2 were the same as observed in cells undergoing apoptosis [Kaufmann et al. (1993) Cancer Res. 53, 3976-3985; Wang et al. (1996) supra]. […]

[2] = test system: hamster liver nuclei; assay: DNA fragmentation assay (HeLa S-100 incubated with hamster liver nuclei); type: biochemical; settings: 1 mM nucleotide, 37° C., 2 hr
Description: as §1, with “In FIG. 1D, a 50 μlaliquot of HeLa cell S-100 (250 μg) was incubated with 6 μl Hamster Liver nuclei in the absence (lane 1), or presence of 1 mM ATP (lane 2) or dATP (lane 3) for 2 hr at 37° C. in a final volume of 60 μl of buffer A. DNA was isolated as described in the Examples and size-separated by agarose gel electrophoresis (2% agarose), and the DNA was visualized by ethidium bromide staining.” left out
FIGS. 2A-2B illustrate the nucleotide specificity for in vitro activation of CPP32 and DNA fragmentation. […] The DNA was isolated, analyzed by 2% agarose gel electrophoresis and visualized by ethidium bromide staining. […]

[3] = test system: variety of cell types; settings: cited from earlier work
[4] = test system: HeLa cells; assay: Staurosporine treatment of HeLa cells: cytochrome c in S-cytosol and PARP cleavage; type: cell-based, human; settings: 1 μM, 6 hr
Description: HeLa cells were treated as described in FIG. 9. On day 2, staurosporine at a final concentration of 1 μM was added to the medium as indicated. After incubation at 37° C. for 6 hr, the cells were harvested and S-cytosols were prepared as described in FIG. 9. In FIG. 10A, a 50 μg aliquot of HeLa cell S-100 as in FIGS. 1-7 (lane 1), or S-cytosol from HeLa cells (lane 2), or S-cytosol from HeLa cells treated with staurosporine for 6 hr. In lane 4, aliquot of 0.2 μg of Apaf-2 purified through Mono S column step. Proteins were separated using 15% SDS-PAGE, transferred to a nitrocellulose filter, and probed with a monoclonal anti-cytochrome c antibody and the antigen/antibody complex was visualized by the ECL method as described herein. Kodak X-OMAT AR X-ray film was exposed for 15 seconds. The arrow denotes the position of cytochrome c; X denotes protein bands cross-reacting with this antibody. In FIG. 10B, aliquots containing 4.5 μg of S-cytosol from HeLa cells (−staurosporine) or HeLa cells treated with 1 μM staurosporine for 6 hr (+staurosporine) were incubated with 10 μl aliquots of in vitro translated, 35S-labeled PARP for 30 min at 30° C. in a volume of 20 μl of buffer A. Samples were then subjected to 12% SDS-PAGE, transferred to a nitrocellulose filter, and film was exposed for 4 hr at room temperature.
HeLa cells were treated with staurosporine. […]

[5] = test system: U937 cells; assay: Staurosporine treatment of human monoblastic U937 cells; type: cell-based

Q: For `Nc1ncnc2c1ncn2[C@@H]1O[C@H](COP(=O)(O)OP(=O)(O)OP(=O)(O)O)[C@@H](O)[C@H]1O` [ATP], which “activation of CPP32 in HeLa cell S-100” value [1] is on record?
A: no activation of CPP32 was observed

Q: What about the “DNA fragmentation in hamster liver nuclei” value [2] of the same molecule?
A: Such fragmentation did not occur

Q: With `CN[C@@H]1C[C@H]2O[C@@](C)([C@@H]1OC)n1c3ccccc3c3c4c(c5c6ccccc6n2c5c31)C(=O)NC4` [staurosporine] as the molecule, how does the initiation of apoptosis [3] read?
A: potent apoptosis inducer

Q: And the “activation of endogenous CPP32 detected by cleavage of PARP” value [4]?
A: resulted in activation of the endogenous CPP32

Q: And the “cytochrome c in S-cytosol” value ([4]; vs non-treated cells)?
A: increased release of cytochrome c to the cytosol; also recorded: markedly elevated cytochrome c; also recorded: increased cytosolic cytochrome c

Q: What about the “cytochrome c in cytosol / CPP32 activation” value [5] of the same molecule?
A: The same phenomenon was also observed
